Source: PubChem BioAssay (NCI)
Several values for one entry are separate records, joined by “and”; a condition that tells them apart may be missing. Identical values can stand only once.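 These data come from cells grown in 96-well plates and exposed to compound for 48 hours at five concentrations. GI50 is the concentration that inhibits growth by half. At the TGI there is no net growth.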

Assays:
Experiment in all cases: growth of human tumour cells (NCI), 48 h
MALME-3M melanoma = system: MALME-3M melanoma
MCF7 breast = system: MCF7 breast
SW-620 colon = system: SW-620 colon
RXF 393 renal = system: RXF 393 renal
OVCAR-5 ovarian = system: OVCAR-5 ovarian
MDA-MB-231 breast = system: MDA-MB-231 breast
SF-295 CNS = system: SF-295 CNS
LOX IMVI melanoma = system: LOX IMVI melanoma
UACC-257 melanoma = system: UACC-257 melanoma
SK-MEL-28 melanoma = system: SK-MEL-28 melanoma

Row | SMILES | GI50 (MALME-3M melanoma) | TGI (MALME-3M melanoma) | GI50 (MCF7 breast) | TGI (MCF7 breast) | GI50 (SW-620 colon) | TGI (SW-620 colon) | GI50 (RXF 393 renal) | TGI (RXF 393 renal) | GI50 (OVCAR-5 ovarian) | TGI (OVCAR-5 ovarian) | GI50 (MDA-MB-231 breast) | TGI (MDA-MB-231 breast) | GI50 (SF-295 CNS) | TGI (SF-295 CNS) | GI50 (LOX IMVI melanoma) | TGI (LOX IMVI melanoma) | GI50 (UACC-257 melanoma) | TGI (UACC-257 melanoma) | GI50 (SK-MEL-28 melanoma) | TGI (SK-MEL-28 melanoma)
1 | Cn1cc(-c2csc(-c3ccc(Cl)cc3)n2)c2cccnc21 | 14.8 µM | 42.2 µM | 11900 nM | 29.8 µM | 15000 nM | 29.3 µM | 13.9 µM | 39.8 µM | 14.2 µM | 32.7 µM | 13.3 µM | 33.3 µM | 15500 nM | 34.4 µM | 12400 nM | 24.9 µM | 19.9 µM | 43.5 µM | 15.2 µM | 29.4 µM
2 | COc1ccc2c(CN3CCCC[C@H]3O)cc3cc4c(cc3c2c1)OCO4 | 0.218 µM | 0.61 µM | 314 nM | 3.22 µM | 310 nM | 4.65 µM | 0.191 µM | 0.95 µM | 0.489 µM | 14.1 µM | 0.62 µM | 8.43 µM | 354 nM | 2.81 µM | 228 nM | 0.849 µM | 0.237 µM | 0.737 µM | 0.329 µM | 1.31 µM
3 | COc1ccc(C(=O)Cn2c(C(=O)c3ccc(Cl)cc3)nc(-c3ccccc3)c2-c2ccccc2)cc1 | > 100 µM | > 100 µM | > 100000 nM | > 100 µM | > 100000 nM | > 100 µM | 23.6 µM | > 100 µM | > 100 µM | > 100 µM | 44 µM | > 100 µM | 91000 nM | > 100 µM | > 100000 nM | > 100 µM | > 100 µM | > 100 µM | > 100 µM | > 100 µM
4 | CC(C)(O)c1cc(Nc2cc(Oc3cn(C4CC4)nc3C3CCOCC3)ccn2)ccn1 | > 100 µM | > 100 µM | 35300 nM | > 100 µM | > 100000 nM | > 100 µM | 68.4 µM | > 100 µM | > 100 µM | > 100 µM | 65 µM | > 100 µM | 64300 nM | > 100 µM | 35100 nM | > 100 µM | 85.1 µM | > 100 µM | > 100 µM | > 100 µM
5 | CN(Cc1cnc2nc(N)nc(N)c2n1)c1c(Cl)cc(C(=O)NC(CCC(=O)O)C(=O)O)cc1Cl (stereo not drawn) | 81.4 µM | > 100 µM | < 10 nM | > 100 µM | < 10 nM | > 100 µM | 0.731 µM | > 100 µM | 1.76 µM | > 100 µM |  | > 100 µM | 15.6 nM |  | < 10 nM | > 100 µM |  | > 100 µM | 0.313 µM | > 100 µM
6 | O=C(O)C(Cc1ccccc1)N1C(=O)/C(=C/C(Cl)=C/c2ccc([N+](=O)[O-])cc2)SC1=S (stereo not drawn) | 2.13 µM | 4.82 µM | 2380 nM | 10.7 µM |  |  | 1.54 µM | 3.02 µM | 2.82 µM | 7.9 µM | 3.35 µM | > 100 µM | 2590 nM | 7.85 µM | 1640 nM | 3.26 µM | 1.97 µM | 4.95 µM | 2.16 µM | 4.68 µM
7 | O=C(O)CCN1C(=S)CSC1=S |  | > 100 µM |  | > 100 µM |  | > 100 µM |  | > 100 µM |  | > 100 µM |  | > 100 µM |  | > 100 µM |  | > 100 µM |  | > 100 µM |  | > 100 µM
8 | COC(=O)c1c(C(=O)O)c(-c2ccccc2)c(-c2ccccc2)c(-c2ccccc2)c1-c1ccccc1 | > 100 µM | > 100 µM | > 100000 nM | > 100 µM | > 100000 nM | > 100 µM | > 100 µM | > 100 µM | > 100 µM | > 100 µM | > 100 µM | > 100 µM | > 100000 nM | > 100 µM | > 100000 nM | > 100 µM | > 100 µM | > 100 µM | 93.4 µM | > 100 µM
9 | Cc1c(-c2ccc(-c3ccccc3F)cc2)nc2ccc(F)cc2c1C(=O)O | 22.7 µM and 43.9 µM | 107 µM and 293 µM | 445 nM and 979 nM | 170 µM and 405 µM | 488 nM and 1160 nM | 139 µM and 577 µM | 76 µM | 121 µM and 236 µM |  | 209 µM and 371 µM | 89.8 µM and 30.5 µM | 146 µM and 250 µM | 163 nM and 1370 nM | 43.6 µM and 48.6 µM and 210 µM | 508 nM | 31.2 µM and 71.3 µM |  | 155 µM and 236 µM | 22.4 µM and 67.8 µM | 158 µM and 400 µM
10 | CCOC(=O)c1sc(NC(=O)COc2ccc(/C=C3\CCc4cc(OC)ccc4C3=O)cc2)nc1C | 1.13 µM | 12.6 µM | 9430 nM | 23 µM | 11400 nM | 23.5 µM | 12 µM | 29.3 µM | 8.97 µM | 24.6 µM | 13.1 µM | 31.8 µM | 11100 nM | 23.9 µM | 1310 nM | 18.8 µM | 11.5 µM | 25 µM | 14.6 µM | 27.7 µM
11 | CC(=O)/C(=N\N=C(N)N)c1ccccc1 |  | > 100 µM |  | > 100 µM |  | > 100 µM |  | > 100 µM |  | > 100 µM |  | > 100 µM |  | > 100 µM |  | > 100 µM |  | > 100 µM |  | > 100 µM
12 | O=C1C=C(NCCc2ccccc2)c2ccccc2C1=O |  | 2.47 µM |  | 3.34 µM |  | 4.31 µM |  | 20.4 µM |  | 3.39 µM |  | 42.8 µM |  | 4.76 µM |  | 3.37 µM |  | 2.93 µM |  | 3.96 µM
13 | CCOC(=O)C(Cc1cc(OC)c(CC(C(=O)OCC)C(=O)OCC)cc1OC)C(=O)OCC |  | > 100 µM |  | > 100 µM |  | > 100 µM |  | 97.7 µM |  | > 100 µM |  | > 100 µM |  | > 100 µM |  | > 100 µM |  | > 100 µM |  | > 100 µM
14 | CN(C)CCN=c1nc2c(c(N)n1-c1ccccc1)c(=S)n(-c1ccccc1)c(=S)n2-c1ccccc1 | 2.04 µM | 3.93 µM | 1900 nM | 7.39 µM | 1930 nM | 4.87 µM | 2.62 µM | 7.8 µM | 9.95 µM | 25.5 µM | 1.16 µM | 4.05 µM | 2310 nM | 6.37 µM | 1380 nM | 2.71 µM | 1.91 µM | 3.75 µM | 0.867 µM | 2.33 µM
